ChEMBL document CHEMBL3877248, “Further investigation of inhibitors of MRSA pyruvate kinase: Towards the conception of novel antimicrobial agents” (Eur J Med Chem, 2017)
In brackets after ≈: the same amount, converted by molar mass.

Tests used:
[1] = biological target: T1, Pyruvate kinase (Staphylococcus aureus (strain MRSA252), UniProt Q6GG09); test: Inhibition of recombinant N-terminal His-tagged methicillin-resistant Staphylococcus aureus MRSA252 pyruvate kinase expressed in Escherichia coli BL21(DE3) using PEP as substrate measured after 5 mins by LDH-coupled assay; set-up: species or system Staphylococcus aureus subsp. aureus MRSA252
T1 sequence (Q6GG09 whole entry): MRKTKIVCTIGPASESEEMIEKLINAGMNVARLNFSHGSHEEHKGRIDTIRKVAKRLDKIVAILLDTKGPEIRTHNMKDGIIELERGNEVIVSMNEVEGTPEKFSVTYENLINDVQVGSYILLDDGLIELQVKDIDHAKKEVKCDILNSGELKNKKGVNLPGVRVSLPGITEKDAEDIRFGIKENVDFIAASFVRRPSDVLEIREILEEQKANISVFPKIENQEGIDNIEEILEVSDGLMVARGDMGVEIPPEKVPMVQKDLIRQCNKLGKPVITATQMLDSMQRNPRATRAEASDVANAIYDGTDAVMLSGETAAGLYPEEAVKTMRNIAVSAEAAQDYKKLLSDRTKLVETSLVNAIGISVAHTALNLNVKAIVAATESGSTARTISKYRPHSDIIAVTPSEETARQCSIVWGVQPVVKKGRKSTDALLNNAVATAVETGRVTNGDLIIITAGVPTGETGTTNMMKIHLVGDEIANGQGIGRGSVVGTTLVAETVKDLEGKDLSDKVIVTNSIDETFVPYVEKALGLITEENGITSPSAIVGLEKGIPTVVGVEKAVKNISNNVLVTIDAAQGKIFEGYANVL

[2] = tested on: Staphylococcus aureus; test: Antibacterial activity against Staphylococcus aureus ATCC 29213 measured after 24 hrs by two-fold microbroth dilution method; type: functional
[3] = biological target: T2, Pyruvate kinase (Staphylococcus aureus (strain MRSA252)) (UniProt Q6GG09); test: Inhibition of recombinant N-terminal His-tagged methicillin-resistant Staphylococcus aureus MRSA252 pyruvate kinase expressed in Escherichia coli BL21(DE3) at 1 uM using PEP as substrate measured after 5 mins by LDH-coupled assay relative to control; settings: Staphylococcus aureus subsp. aureus MRSA252
T2 sequence (whole entry): T1 sequence (Q6GG09 whole entry)

[4] = biological target: T2, Pyruvate kinase (Staphylococcus aureus (strain MRSA252)); test: Inhibition of recombinant N-terminal His-tagged methicillin-resistant Staphylococcus aureus MRSA252 pyruvate kinase expressed in Escherichia coli BL21(DE3) at 0.1 uM using PEP as substrate measured after 5 mins by LDH-coupled assay relative to control; settings: Staphylococcus aureus subsp. aureus MRSA252
[5] = tested on: Staphylococcus aureus; test: Antibacterial activity against methicillin-resistant Staphylococcus aureus MRSA252 by two-fold microbroth dilution method; type: functional
[6] = Selectivity ratio for inhibition of recombinant N-terminal His-tagged methicillin-resistant Staphylococcus aureus MRSA252 pyruvate kinase over inhibition of human recombinant N-terminal His-tagged pyruvate kinase M1
[7] = Selectivity ratio for inhibition of recombinant N-terminal His-tagged methicillin-resistant Staphylococcus aureus MRSA252 pyruvate kinase over inhibition of human recombinant N-terminal His-tagged pyruvate kinase M2
[8] = Selectivity ratio for inhibition of recombinant N-terminal His-tagged methicillin-resistant Staphylococcus aureus MRSA252 pyruvate kinase over inhibition of human recombinant N-terminal His-tagged pyruvate kinase-R
[9] = Selectivity ratio for inhibition of recombinant N-terminal His-tagged methicillin-resistant Staphylococcus aureus MRSA252 pyruvate kinase over inhibition of human recombinant N-terminal His-tagged pyruvate kinase-L
[10] = biological target: T2, Pyruvate kinase (Staphylococcus aureus (strain MRSA252)); test: Inhibition of recombinant N-terminal His-tagged methicillin-resistant Staphylococcus aureus MRSA252 pyruvate kinase expressed in Escherichia coli BL21(DE3) at 10 uM using PEP as substrate measured after 5 mins by LDH-coupled assay relative to control; settings: Staphylococcus aureus subsp. aureus MRSA252

| Compound | IC50 [1] | MIC>98 [2] | inhibition [3] | other results |
| --- | --- | --- | --- | --- |
| O=C(/C=C/c1c[nH]c2ccc(Br)cc12)c1cc2ccccc2[nH]1 | 1.78 µM | >64 mg/L | – | – |
| O=C(/C=C/c1cc2ccc(Br)cc2[nH]1)c1cc2ccccc2[nH]1 | – | >64 mg/L | 38% | – |
| O=C(Nc1cc(Br)ccc1O)c1cc2ccccc2[nH]1 | – | – | 28% | – |
| O=C(Nc1nc2cc(Br)ccc2[nH]1)c1cc2ccc(Br)cc2[nH]1 | 0.002 µM | >64 mg/L | – | – |
| O=C(/C=C/c1c[nH]c2cc(Br)ccc12)c1cc2ccccc2[nH]1 | – | – | 45% | – |
| O=C1c2ccc(Br)cc2C(=O)N1c1nc2ccc(Br)cc2s1 | – | >64 mg/L | 34% | – |
| O=C(Nc1nc2ccc(Br)cc2s1)c1ccccc1O | – | >64 mg/L | 65% | – |
| Brc1ccc(-c2c[nH]c3cc(Br)ccc23)cc1 | – | 2 mg/L (≈ 5.7 µM) | – | – |
| O=C(/C=C/c1cc(Br)ccc1O)c1cc2ccccc2[nH]1 | 0.355 µM | 2 mg/L (≈ 5.84 µM) | – | – |
| Oc1ccc(Br)cc1-c1nnc(-c2cc3ccccc3[nH]2)o1 | – | >64 mg/L | 8% | – |
| COc1ccc(Br)cc1/C=C1\CCc2c([nH]c3ccccc23)C1=O | – | – | 22% | – |
| Oc1c(Br)cccc1CNc1nc2ccc(Br)cc2s1 | – | – | 17% | – |
| O=C(/C=C/c1cc2ccccc2[nH]1)c1cc2ccc(Br)cc2[nH]1 | 0.005 µM | >64 mg/L | – | – |
| CN(C(=O)c1cc(Br)ccc1O)c1nc2ccc(Br)cc2s1 | – | – | 5% | – |
| O=C(Nc1ccc(Br)cc1)c1cc2ccccc2[nH]1 | – | >64 mg/L | 41% | – |
| O=C(c1ncc(-c2c[nH]c3cc(Br)ccc23)[nH]1)c1c[nH]c2ccccc12 [BROMODEOXYTOPSENTIN] | 0.06 µM | – | – | – |
| O=C(Nc1nc2ccc(Br)cc2s1)c1ccc(Br)cc1O | – | >64 mg/L | – | – |
| O=C(/C=C/c1cc2ccccc2[nH]1)c1cc(Br)ccc1O | – | – | 10% | – |
| O=C(Nc1nc2cc(Br)ccc2s1)c1cc2ccccc2[nH]1 | – | >64 mg/L | – | – |
| COc1ccc(Br)cc1-c1cccc(-c2cc3ccccc3[nH]2)n1 | – | >64 mg/L | 6% | – |

| Compound | IC50 [1] | MIC>98 [2] | inhibition [3] | other results |
| --- | --- | --- | --- | --- |
| O=C(Nc1nc2cc(Br)ccc2s1)c1cc2cc(Br)ccc2[nH]1 | 0.008 µM | >64 mg/L | – | – |
| O=C(/C=C/c1cc2ccc(Br)cc2[nH]1)c1cc2ccc(Br)cc2[nH]1 | – | – | 6% | – |
| O=C(Nc1nc2cc(Br)ccc2s1)c1cc(Br)ccc1O | – | >64 mg/L | 48% | – |
| O=C(Nc1nc2ccc(Br)cc2s1)c1cc(Br)ccc1O | – | >64 mg/L | – | – |
| O=C(/C=C/c1cc2ccc(Br)cc2[nH]1)c1cccc(Br)c1O | – | >64 mg/L | 41% | – |
| Brc1ccc(-c2cc3cc(Br)ccc3[nH]2)cc1 | – | – | 21% | – |
| O=C(/C=C/c1cc2ccc(Br)cc2[nH]1)c1ccc(Br)cc1O | 0.132 µM | >64 mg/L | – | – |
| O=C(/C=C/c1c[nH]c2cc(Br)ccc12)c1c[nH]c2ccccc12 | – | – | 28% | – |
| O=C(Nc1nc2cc(Br)ccc2[nH]1)c1cc(Br)ccc1O | 0.011 µM | 4 mg/L (≈ 9.73 µM) | – | – |
| O=C(/C=C/c1ccc(Br)cc1O)c1cc2ccc(Br)cc2[nH]1 | 0.014 µM | >64 mg/L | – | – |
| COc1c(Br)cccc1C(=O)Nc1nc2ccc(Br)cc2s1 | – | >64 mg/L | 22% | – |
| O=C(Nc1nc2ccc(Br)cc2s1)c1cccc(Br)c1O | – | 4 mg/L (≈ 9.34 µM) | – | – |
| O=C(Nc1cc(Br)ccc1O)c1cc2ccc(Br)cc2[nH]1 | 0.012 µM | >64 mg/L | – | – |
| O=C(/C=C/c1cc2ccc(Br)cc2[nH]1)c1ccccc1O | 0.343 µM | >64 mg/L | – | – |
| O=C(/C=C/c1cc2ccccc2[nH]1)c1ccc(Br)cc1O | 0.553 µM | >64 mg/L | – | – |
| Brc1ccc(-c2c[nH]c3ccc(Br)cc23)cc1 | – | 1 mg/L (≈ 2.85 µM) | – | inhibition [4]: 20% |
| Cn1c(C(=O)Nc2nc3ccc(Br)cc3s2)cc2ccccc21 | – | >64 mg/L | 41% | – |
| O=C(Nc1nc2cc(Br)ccc2[nH]1)c1cc2cc(Br)ccc2[nH]1 | 0.003 µM | >64 mg/L | – | – |
| O=C(Nc1ccc(Br)cc1)c1cc2ccc(Br)cc2[nH]1 | 0.01 µM | >64 mg/L | – | – |
| O=C(/C=C/c1cccc(Br)c1O)c1cc2ccc(Br)cc2[nH]1 | 0.403 µM | >64 mg/L | – | – |

| Compound | IC50 [1] | MIC>98 [2] | inhibition [3] | other results |
| --- | --- | --- | --- | --- |
| O=C(Nc1ccc(Br)cc1)c1cc2ccc(Br)cc2s1 | – | >64 mg/L | – | inhibition [4]: 43% |
| O=C(/C=C/c1cc2ccc(Br)cc2[nH]1)c1cc(Br)ccc1O | – | >64 mg/L | 15% | – |
| O=C(/C=C/c1cc(Br)ccc1O)c1cc2ccc(Br)cc2[nH]1 | 0.024 µM | 1 mg/L (≈ 2.37 µM) | – | – |
| O=C(Nc1nc2ccc(Br)cc2s1)c1cc2cc(Br)ccc2[nH]1 | 0.023 µM | >64 mg/L | – | – |
| Oc1ccc(Br)cc1/C=N/c1nc2ccc(Br)cc2s1 | – | 64 mg/L (≈ 155 µM) | 41% | – |
| O=C(Nc1nc2ccc(Br)cc2s1)c1cc(Br)cc(Br)c1O | 0.004 µM | 1 mg/L (≈ 1.97 µM) | – | – |
| O=C(Nc1cccc(Br)c1O)c1cc2ccc(Br)cc2[nH]1 | – | >64 mg/L | – | – |
| O=C(Nc1nc2ccc(Br)cc2s1)c1cccc(Cl)c1O | – | 4 mg/L (≈ 10.4 µM) | – | inhibition [4]: 43% |
| Oc1ccc(Br)cc1-c1ccnc(-c2cc3ccc(Br)cc3[nH]2)c1 | – | >64 mg/L | – | inhibition [4]: 41% |
| O=C1NC[C@@H](c2c[nH]c3cc(Br)ccc23)N[C@H]1c1c[nH]c2cc(Br)ccc12 [CIS-3,4-DIHYDROHAMACANTHIN B] | – | – | – | MIC [5]: 12.5 mg/L (≈ 25.6 µM); Selectivity ratio [6]: 166 to 600; Selectivity ratio [7]: 166 to 600; Selectivity ratio [8]: 166 to 600; Selectivity ratio [9]: 166 to 600 |
| O=C(/C=C/c1cc2ccc(Br)cc2[nH]1)c1cc2cc(Br)ccc2[nH]1 | – | >64 mg/L | 21% | – |
| O=C(Nc1nc2ccc(Br)cc2s1)c1cc2ccccc2[nH]1 | – | >64 mg/L | – | – |
| COc1ccc(Br)cc1-c1nnc(-c2cc3ccccc3[nH]2)o1 | – | >64 mg/L | 19% | – |
| O=C(/C=C/c1c[nH]c2ccc(Br)cc12)c1c[nH]c2ccccc12 | – | – | 1% | – |
| COc1ccc(Br)cc1/C=C/C(=O)c1cc2ccc(Br)cc2[nH]1 | 0.008 µM | >64 mg/L | – | – |
| O=C(Nc1nc2ccccc2s1)c1cc(Br)ccc1O | – | >64 mg/L | 13% | – |
| COc1ccc(Br)cc1C(=O)Nc1nc2ccc(Br)cc2s1 | 0.008 µM | >64 mg/L | – | – |
| O=C(/C=C/c1cc2ccccc2[nH]1)c1cccc(Br)c1O | – | – | – | inhibition [10]: 2% |
